Holding throughout (assay type): cell-based, human
For one test, the system named is VTC-034 GSCs. Nature of the test: Gliosphere formation assay, VTC-034 GSCs. To be noted: VTC-034, 10, 50 or 100 μM every other day, 2 weeks. As to the method:
(§1) GSCs and PDX GBM22 cells were plated as single cell suspension in low-attachment 96-well plates (GSCs: 100–500 cells per well; GBM22 cells: 500–2000 cells per well), using methods similar to those reported previously. Cells were then treated with peptides every other day. 2 weeks later, gliospheres were observed using phase contrast microscopy on a Revolve microscope (Echo Laboratories). The number of gliospheres was then determined, while the gliosphere size was assessed by diameter measurement. To evaluate stem cell frequency in GSCs, gliosphere formation assay was performed with limiting cell dilutions with cells plated at varying densities in low-attachment 96-well plates. Cells were treated with peptides every other day, and after 2 weeks, gliosphere-positive wells were observed and scored using phase contrast microscopy on a Revolve microscope. The stem cell frequency was analyzed using the online data analysis program ELDA (Extreme Limiting Dilution Analysis).

For the next test, the system named is Cx43. Nature of the test: Cx43 protein expression, immunoblot, VTC-001 GSCs. The following applies: 50 μM, 24 h. Here is the method:
Cells were lysed in RIPA buffer (0.1% sodium dodecyl sulphate, 50 mM Tris pH 7.4, 150 mM NaCl, 1 mM EDTA, 1% Triton X-100, 1% deoxycholic acid, 200 μM Na3VO4, and 1 mM NaF) supplemented with Halt^TM Protease and Phosphatase Inhibitor Cocktail (Thermo Fisher). Lysates were sonicated prior to centrifugation at 4 °C for 20 min at 10,000 x g. Protein concentration was quantified using the DC protein assay (Bio-Rad Laboratories) and a standard curve obtained with increasing concentrations of Bovine Serum Albumin (BSA; Fisher Scientific). Protein samples were normalized to 20 μg total protein per lane and resolved by SDS-PAGE electrophoresis. 4X Bolt LDS sample buffer supplemented with 400 mM DTT (final concentration 1X Bolt LDS with 100 mM DTT) was added to samples before heating at 70 °C for 10 min. SDS-PAGE was run using NuPAGE Bis-Tris 4%–12% gradient gels (Thermo Fisher) with MES or MOPS running buffer according to manufacturer’s instructions. Spectra™ Multicolor Protein Ladder (Thermo Fisher) or Precision Plus Protein™ Kaleidoscope™ Prestained Protein Standards (Bio-Rad Laboratories) were included as protein ladders on the same gels. […] Membranes were imaged on a ChemiDoc™ imaging system, and analyzed with Image Lab software (Bio-Rad Laboratories). […]

For test [1], the system named is VTC-037 GSCs. As to the kind of experiment: Limiting dilution analysis (ELDA), VTC-037 GSCs. The following applies: VTC-037, 100 μM every other day, 2 weeks; compared to JM2-scrambled or control. Here is the method:
as §1
All quantification was performed on experiments repeated at least three times. Statistical analysis was conducted with GraphPad Prism (GraphPad Software). Data were analyzed for significance using Student’s t test, one-way ANOVA with Tukey’s multiple comparisons test, and presented as mean ± SD. […] Statistical significance between experimental groups was determined using chi-square (χ²) tests within the ELDA framework. […]

Test [2] deals with VTC-037 GSCs. Nature of the test: MTS viability, VTC-037 GSCs. To be noted: 4 days. Here is the method:
Cells were plated in 96-well plates (2000–5000 cells per well) and treated the following day with TMZ (10, 50, or 100 μM), antennapedia, JM2-scrambled, or JM2 (10, 50, or 100 μM). After 4 days, cell viability was monitored following addition of MTS reagent (Promega) according to manufacturer’s instructions. The absorbance at 490 nm was measured using a SpectraMax i3 or iD3 microplate reader (Molecular Devices). For the caspase 3/7 activity assay, cells were plated in 96-well plates (2000 cells per well) and treated with TMZ or peptides as described above. The activity of caspase 3/7 was measured after 48 h using the Caspase-Glo® 3/7 assay (Promega) following the manufacturer’s instructions. Fold change of caspase 3/7 activity was defined as the ratio of caspase 3/7 luminescence in treated cells compared to controls.

Another test deals with VTC-001 GSCs. Nature of the test: Gliosphere formation assay, VTC-001 GSCs. To be noted: VTC-001, 10, 50 or 100 μM every other day, 2 weeks. As to the method: as §1

With VFFKGVKDRVKGRSD [JM2], the GSC-dependent gliosphere formation entry was “inhibits VTC-001, VTC-034, and VTC-037 GSC-dependent gliosphere formation in a dose-dependent manner” in the test with VTC-034 GSCs; “inhibits VTC-001, VTC-034, and VTC-037 GSC-dependent gliosphere formation in a dose-dependent manner” with VTC-001 GSCs. The “Gliosphere size (diameter)” value in the test with VTC-034 GSCs (n = 4) and with VTC-001 GSCs (n = 4) was “significant decrease in gliosphere size” in each case. Besides, the Gliosphere number entry in the test with VTC-034 GSCs (n = 6) was “significant decrease in gliosphere size as assessed by diameter measurement (Fig. 6B), and number”; in the test with VTC-001 GSCs (n = 6) it was “significant decrease in gliosphere size as assessed by diameter measurement (Fig. 6B), and number”. The Cx43 protein expression entry with Cx43 is reported as “without affecting Cx43 expression”. Also, in the test with VTC-037 GSCs [1], the “GSC frequency / self-renewal (limiting dilution)” value was “significant decrease in VTC-001, VTC-034, and VTC-037 GSC frequency”. Further, in the test with VTC-037 GSCs [2] (VTC-037 adherent GSCs, 100 μM), the “GSC viability with JM2 alone in combination experiment (MTS)” value is recorded as “significantly decreased GSC viability”. Besides, the “GSC survival (MTS)” value with VTC-037 GSCs [2] (VTC-037 adherent GSCs, 10, 50 or 100 μM) was “significantly decreased VTC-001, VTC-034, and VTC-037 GSC survival when cultured as adherent cells in a dose-dependent manner”.
